Literature values as cited in article PMC12123727 (BMC Cancer, 2025).

Columns and labels:
[1] = system: r/r FL; details: patients with r/r FL, cited from earlier work
[2] = system: DLBCL; details: patients with DLBCL, 2/19; cited from earlier work

O=C(CCCCCCC(=O)Nc1ccccc1)NO [Vorinostat, vorinostat]
objective response rate (ORR) ([1]; 19/39): 49% | median PFS [1]: 20 months

O=C(/C=C/c1cccc(S(=O)(=O)Nc2ccccc2)c1)NO [Belinostat, belinostat]
ORR [2]: 10.5%
